Source: patent publication US20220348565A1, “PHARMACEUTICAL COMPOUNDS” (SENTINEL ONCOLOGY LIMITED, priority 2019, published 2022)
Read-outs that look alike come from different tables or passages of the source.

Experiments:
[1] = test system: U87-Luc cells; assay: U87-Luc orthotopic xenograft model; assay type: in vivo, male athymic nude mice; settings: oral 100 mg/kg on days 1, 4, 7, 10 and 13; Day 15
Protocol: U87-Luc cells were intracerebrally implanted into the brains of male athymic nude mice and tumour growth was monitored by bioluminescent signal. In the treatment group animals were given an oral dose of 100 mg/kg of atropisomer A-2 on days 1, 4, 7, 10 and 13. The control group animals were given vehicle only.

[2] = target: T1, panel of ninety-seven kinases (Homo sapiens, UniProt Q9BUB5); assay: DiscoverX KinomeScreen kinase selectivity competition binding assay; settings: MKNK1; read-out: % Ctrl @ 3 μM
T1 construct: purchased DiscoverX; host or cells: T7 phage in E. coli (BL21-derived) for most kinases; HEK-293 for the rest
Protocol: (§1) Atropisomer A-2 has been tested for off-target activity against a panel of ninety-seven kinases distributed across the kinome at a concentration of 3 μM using the DiscoverX KinomeScreen assay. The DiscoverX KinomeScreen assay is a site-directed competition binding assay which measures the binding affinity of a compound to a kinase, by use of a solid supported control compound which can bind or capture the kinases in solution. In the absence of a kinase-inhibitor test compound, all of the kinase will bind to the solid support. If a kinase-inhibitor test compound is added to the assay mix, the amount of kinase binding to the solid support will be reduced, the extent of reduction being dependent on the potency of the test compound as a kinase inhibitor. […] For most assays, kinase-tagged T7 phage strains were grown in parallel in 24-well blocks in an E. coli host derived from the BL21 strain. E. coli were grown to log-phase and infected with T7 phage from a frozen stock (multiplicity of infection=0.4) and incubated with shaking at 32° C. until lysis (90-150 minutes). The lysates were centrifuged (6,000×g) and filtered (0.2 μm) to remove cell debris. The remaining kinases were produced in HEK-293 cells and subsequently tagged with DNA for qPCR detection. Streptavidin-coated magnetic beads were treated with biotinylated small molecule ligands for 30 minutes at room temperature to generate affinity resins for kinase assays. The liganded beads were blocked with excess biotin and washed with blocking buffer (SeaBlock (Pierce), 1% BSA, 0.05% Tween 20, 1 mM DTT) to remove unbound ligand and to reduce non-specific phage binding. […] Test compounds were prepared as 40× stocks in 100% DMSO and directly diluted into the assay. All reactions were performed in polypropylene 384-well plates in a final volume of 0.02 ml. […] The beads were then re-suspended in elution buffer (1×PBS, 0.05% Tween 20, 0.5 μM non-biotinylated affinity ligand) and incubated at room temperature with shaking for 30 minutes. The kinase concentration in the eluates was measured by qPCR. Compounds that bind the kinase active site and directly (sterically) or indirectly (allosterically) prevent kinase binding to the immobilized ligand, will reduce the amount of kinase captured on the solid support. […] The strength of binding of the test molecule to the kinase can be expressed as the percent control (% Ctrl) The compound(s) were screened at 3000 nM concentration, and results for primary screen binding interactions are reported as ‘% Ctrl’, where lower numbers indicate stronger hits in the matrix on the following page(s). [formula] • negative control=DMSO (100% Ctrl) • positive control=control compound (0% Ctrl)

[3] = target: T2, panel of ninety-seven kinases (Homo sapiens, UniProt P42336); assay: as above; settings: PIK3CA; read-out: % Ctrl @ 3 μM
T2 construct: purchased DiscoverX; host or cells: T7 phage in E. coli (BL21-derived) for most kinases; HEK-293 for the rest
T2 sequence (P42336 whole entry): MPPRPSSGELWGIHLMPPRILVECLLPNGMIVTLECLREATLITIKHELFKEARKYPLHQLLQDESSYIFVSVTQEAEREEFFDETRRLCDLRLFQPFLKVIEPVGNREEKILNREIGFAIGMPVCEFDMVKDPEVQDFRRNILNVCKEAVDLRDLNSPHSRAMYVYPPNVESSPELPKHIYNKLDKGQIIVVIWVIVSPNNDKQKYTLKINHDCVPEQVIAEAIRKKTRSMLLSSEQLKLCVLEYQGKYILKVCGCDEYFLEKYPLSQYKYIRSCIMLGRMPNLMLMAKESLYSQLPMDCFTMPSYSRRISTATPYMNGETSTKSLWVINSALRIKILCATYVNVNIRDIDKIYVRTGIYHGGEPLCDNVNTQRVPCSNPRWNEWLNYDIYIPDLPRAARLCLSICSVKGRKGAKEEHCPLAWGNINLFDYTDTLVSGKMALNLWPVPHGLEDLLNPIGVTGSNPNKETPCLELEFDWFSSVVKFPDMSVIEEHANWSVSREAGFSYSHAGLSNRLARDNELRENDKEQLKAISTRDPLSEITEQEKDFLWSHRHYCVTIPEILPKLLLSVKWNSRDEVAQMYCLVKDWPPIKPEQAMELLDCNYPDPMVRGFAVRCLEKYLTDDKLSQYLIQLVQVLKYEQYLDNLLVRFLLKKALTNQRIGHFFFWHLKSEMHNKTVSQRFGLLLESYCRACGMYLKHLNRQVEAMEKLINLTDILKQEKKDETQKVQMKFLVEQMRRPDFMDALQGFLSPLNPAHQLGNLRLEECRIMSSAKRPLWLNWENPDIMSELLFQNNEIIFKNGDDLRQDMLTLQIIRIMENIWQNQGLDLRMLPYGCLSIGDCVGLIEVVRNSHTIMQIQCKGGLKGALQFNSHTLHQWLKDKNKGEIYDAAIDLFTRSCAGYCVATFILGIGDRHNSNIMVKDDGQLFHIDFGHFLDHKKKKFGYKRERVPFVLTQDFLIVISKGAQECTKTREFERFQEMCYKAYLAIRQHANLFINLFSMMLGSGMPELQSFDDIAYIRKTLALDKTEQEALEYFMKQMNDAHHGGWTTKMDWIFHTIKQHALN
Protocol: as §1

[4] = target: T3, panel of ninety-seven kinases (Homo sapiens, UniProt P49841); assay: as above; settings: GSK3B; read-out: % Ctrl @ 3 μM
T3 construct: purchased DiscoverX; host or cells: T7 phage in E. coli (BL21-derived) for most kinases; HEK-293 for the rest
T3 sequence (P49841 whole entry): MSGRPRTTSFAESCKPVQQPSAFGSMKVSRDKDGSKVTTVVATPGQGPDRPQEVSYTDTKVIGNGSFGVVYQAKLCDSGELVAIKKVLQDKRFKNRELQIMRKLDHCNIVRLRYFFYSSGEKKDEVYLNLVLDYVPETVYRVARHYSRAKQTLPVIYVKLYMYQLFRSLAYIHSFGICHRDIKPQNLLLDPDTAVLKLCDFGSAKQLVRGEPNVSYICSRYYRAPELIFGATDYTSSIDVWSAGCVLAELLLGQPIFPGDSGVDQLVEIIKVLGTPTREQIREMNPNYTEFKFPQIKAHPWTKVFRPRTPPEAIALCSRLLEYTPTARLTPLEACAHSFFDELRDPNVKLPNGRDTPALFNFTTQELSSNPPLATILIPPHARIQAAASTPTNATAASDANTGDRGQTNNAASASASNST
Protocol: as §1

[5] = target: T4, panel of ninety-seven kinases (Homo sapiens, UniProt P45983); assay: as above; settings: MAPK8; read-out: % Ctrl @ 3 μM
T4 construct: purchased DiscoverX; host or cells: T7 phage in E. coli (BL21-derived) for most kinases; HEK-293 for the rest
T4 sequence (P45983 whole entry): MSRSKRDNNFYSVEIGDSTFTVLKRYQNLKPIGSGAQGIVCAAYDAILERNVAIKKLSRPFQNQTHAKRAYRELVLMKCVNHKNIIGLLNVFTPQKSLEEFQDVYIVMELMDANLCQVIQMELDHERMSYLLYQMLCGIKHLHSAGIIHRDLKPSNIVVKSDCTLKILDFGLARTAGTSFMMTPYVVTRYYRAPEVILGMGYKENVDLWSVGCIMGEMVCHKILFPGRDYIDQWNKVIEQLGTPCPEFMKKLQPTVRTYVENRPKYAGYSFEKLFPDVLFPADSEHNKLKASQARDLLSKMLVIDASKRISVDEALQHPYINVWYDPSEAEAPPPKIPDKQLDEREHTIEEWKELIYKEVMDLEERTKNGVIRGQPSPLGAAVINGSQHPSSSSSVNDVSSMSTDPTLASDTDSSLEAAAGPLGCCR
Protocol: as §1

[6] = target: T5, panel of ninety-seven kinases (Homo sapiens, UniProt O15075); assay: as above; settings: DCLK1; read-out: % Ctrl @ 3 μM
T5 construct: purchased DiscoverX; host or cells: T7 phage in E. coli (BL21-derived) for most kinases; HEK-293 for the rest
T5 sequence (O15075 whole entry): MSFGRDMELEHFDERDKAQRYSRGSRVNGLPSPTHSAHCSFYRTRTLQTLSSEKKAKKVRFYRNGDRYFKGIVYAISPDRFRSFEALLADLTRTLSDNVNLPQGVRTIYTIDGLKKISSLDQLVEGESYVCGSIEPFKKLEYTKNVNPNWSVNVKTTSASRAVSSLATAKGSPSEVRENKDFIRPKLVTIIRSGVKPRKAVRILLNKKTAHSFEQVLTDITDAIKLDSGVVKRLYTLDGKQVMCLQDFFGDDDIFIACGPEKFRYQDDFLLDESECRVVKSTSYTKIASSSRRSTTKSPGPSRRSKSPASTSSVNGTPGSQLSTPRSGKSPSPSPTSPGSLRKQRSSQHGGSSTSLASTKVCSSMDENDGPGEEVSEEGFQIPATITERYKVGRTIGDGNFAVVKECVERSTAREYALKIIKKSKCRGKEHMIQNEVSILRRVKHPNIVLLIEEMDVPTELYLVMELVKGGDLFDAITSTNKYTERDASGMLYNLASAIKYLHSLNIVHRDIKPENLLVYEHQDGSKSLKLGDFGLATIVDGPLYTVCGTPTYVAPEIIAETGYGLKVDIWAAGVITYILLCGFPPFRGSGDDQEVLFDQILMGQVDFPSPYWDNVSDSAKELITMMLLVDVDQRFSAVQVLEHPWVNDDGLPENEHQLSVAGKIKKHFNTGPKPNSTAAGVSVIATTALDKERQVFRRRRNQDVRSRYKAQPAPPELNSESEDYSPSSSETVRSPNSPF
Protocol: as §1

[7] = target: T6, panel of ninety-seven kinases (Homo sapiens, UniProt P36888); assay: as above; settings: FLT3; read-out: % Ctrl @ 3 μM
T6 construct: purchased DiscoverX; host or cells: T7 phage in E. coli (BL21-derived) for most kinases; HEK-293 for the rest
T6 sequence (P36888 27-993): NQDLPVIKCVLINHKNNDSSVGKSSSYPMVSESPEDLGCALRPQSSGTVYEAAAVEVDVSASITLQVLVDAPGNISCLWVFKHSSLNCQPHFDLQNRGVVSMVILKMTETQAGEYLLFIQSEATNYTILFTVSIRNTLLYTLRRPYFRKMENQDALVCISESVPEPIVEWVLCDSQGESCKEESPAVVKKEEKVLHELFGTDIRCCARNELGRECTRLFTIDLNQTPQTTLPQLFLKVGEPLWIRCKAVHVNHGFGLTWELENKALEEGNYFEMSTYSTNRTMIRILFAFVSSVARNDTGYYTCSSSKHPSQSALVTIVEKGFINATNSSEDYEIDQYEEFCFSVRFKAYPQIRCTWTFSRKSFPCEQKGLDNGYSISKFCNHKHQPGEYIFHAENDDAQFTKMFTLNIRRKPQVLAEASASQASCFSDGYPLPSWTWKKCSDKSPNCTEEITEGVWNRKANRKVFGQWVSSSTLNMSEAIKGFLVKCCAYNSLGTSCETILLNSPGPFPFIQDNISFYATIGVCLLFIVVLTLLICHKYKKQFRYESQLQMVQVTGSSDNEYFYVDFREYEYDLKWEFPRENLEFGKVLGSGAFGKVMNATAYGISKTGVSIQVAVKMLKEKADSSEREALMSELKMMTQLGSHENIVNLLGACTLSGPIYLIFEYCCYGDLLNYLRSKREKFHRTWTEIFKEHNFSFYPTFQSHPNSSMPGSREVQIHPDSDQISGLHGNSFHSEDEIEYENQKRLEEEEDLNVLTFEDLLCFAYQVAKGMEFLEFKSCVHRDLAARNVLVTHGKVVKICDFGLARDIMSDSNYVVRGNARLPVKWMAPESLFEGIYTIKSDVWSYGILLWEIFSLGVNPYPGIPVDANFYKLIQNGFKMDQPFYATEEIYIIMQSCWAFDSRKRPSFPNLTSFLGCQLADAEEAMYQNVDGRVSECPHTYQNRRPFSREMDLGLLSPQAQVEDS
Protocol: as §1

[8] = target: T7, panel of ninety-seven kinases (Homo sapiens, UniProt Q13873); assay: as above; settings: BMPR2; read-out: % Ctrl @ 3 μM
T7 construct: purchased DiscoverX; host or cells: T7 phage in E. coli (BL21-derived) for most kinases; HEK-293 for the rest
T7 sequence (Q13873 27-1038): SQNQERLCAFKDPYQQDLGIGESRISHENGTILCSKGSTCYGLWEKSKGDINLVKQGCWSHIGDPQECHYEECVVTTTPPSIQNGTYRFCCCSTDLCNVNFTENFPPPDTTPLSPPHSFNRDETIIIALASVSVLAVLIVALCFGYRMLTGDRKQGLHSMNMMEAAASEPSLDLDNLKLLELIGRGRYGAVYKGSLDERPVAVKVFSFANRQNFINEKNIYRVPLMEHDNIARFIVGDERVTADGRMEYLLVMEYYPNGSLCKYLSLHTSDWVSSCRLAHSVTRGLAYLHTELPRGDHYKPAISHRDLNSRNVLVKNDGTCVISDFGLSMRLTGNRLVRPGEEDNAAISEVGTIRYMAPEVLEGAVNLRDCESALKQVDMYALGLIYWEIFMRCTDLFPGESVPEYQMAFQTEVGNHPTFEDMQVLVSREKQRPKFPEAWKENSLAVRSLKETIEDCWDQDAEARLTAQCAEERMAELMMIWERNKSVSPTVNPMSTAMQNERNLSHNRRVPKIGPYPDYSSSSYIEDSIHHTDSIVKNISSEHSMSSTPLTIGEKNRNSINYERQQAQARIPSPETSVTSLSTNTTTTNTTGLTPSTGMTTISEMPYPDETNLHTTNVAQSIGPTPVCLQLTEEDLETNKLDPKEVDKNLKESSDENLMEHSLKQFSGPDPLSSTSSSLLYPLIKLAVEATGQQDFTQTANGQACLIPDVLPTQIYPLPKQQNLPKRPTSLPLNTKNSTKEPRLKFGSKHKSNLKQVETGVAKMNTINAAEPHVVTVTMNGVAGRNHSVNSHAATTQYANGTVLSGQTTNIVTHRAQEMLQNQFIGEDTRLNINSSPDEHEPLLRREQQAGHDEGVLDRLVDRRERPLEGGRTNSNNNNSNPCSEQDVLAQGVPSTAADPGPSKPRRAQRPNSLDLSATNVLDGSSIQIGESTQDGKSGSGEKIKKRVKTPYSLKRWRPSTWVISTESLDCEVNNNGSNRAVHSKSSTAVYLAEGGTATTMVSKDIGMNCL
Protocol: as §1

[9] = target: T8, PLK4 catalytic domain (Homo sapiens, UniProt O00444); assay: DiscoverX KinomeScreen competition binding assay, PLK4; settings: read-out: % Ctrl @ 3 μM
T8 construct: purchased DiscoverX; host or cells: T7 phage in E. coli (BL21-derived) or HEK-293
T8 sequence (O00444 12-265 limits assumed): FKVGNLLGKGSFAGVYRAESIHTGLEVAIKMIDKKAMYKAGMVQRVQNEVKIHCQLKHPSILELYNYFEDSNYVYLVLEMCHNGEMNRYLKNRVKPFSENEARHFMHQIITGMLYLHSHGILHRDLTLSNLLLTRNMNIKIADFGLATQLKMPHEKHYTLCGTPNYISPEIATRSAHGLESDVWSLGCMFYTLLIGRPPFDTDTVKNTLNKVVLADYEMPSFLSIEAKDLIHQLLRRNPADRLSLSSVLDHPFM
Protocol: Atropisomer A-2 has been tested for off-target activity against a panel of ninety-seven kinases distributed across the kinome at a concentration of 3 μM using the DiscoverX KinomeScreen assay. The DiscoverX KinomeScreen assay is a site-directed competition binding assay which measures the binding affinity of a compound to a kinase, by use of a solid supported control compound which can bind or capture the kinases in solution. In the absence of a kinase-inhibitor test compound, all of the kinase will bind to the solid support. If a kinase-inhibitor test compound is added to the assay mix, the amount of kinase binding to the solid support will be reduced, the extent of reduction being dependent on the potency of the test compound as a kinase inhibitor. […] For most assays, kinase-tagged T7 phage strains were grown in parallel in 24-well blocks in an E. coli host derived from the BL21 strain. […] The kinase concentration in the eluates was measured by qPCR. […] The strength of binding of the test molecule to the kinase can be expressed as the percent control (% Ctrl) The compound(s) were screened at 3000 nM concentration, and results for primary screen binding interactions are reported as ‘% Ctrl’, where lower numbers indicate stronger hits in the matrix on the following page(s). […]

[10] = Mouse PK, plasma after i.v. and p.o. dosing (oral bioavailability); assay type: in vivo, Male CD-1 mice; settings: for half-life: read-out: T ½ (converted)
Protocol: Atropisomers A-2 and A-3 were evaluated in an in vivo mouse model to determine brain and plasma concentrations following p.o. and i.v. dosing.
Male CD-1 mice were dosed with the compounds of Examples A-2 and A-3, either by i.v. administration (2 mg/kg) or by p.o. administration (10 mg/kg). Eight samples were taken for analysis in the i.v. leg at 2, 10, 30 min, 1, 2, 4, 8, and 24 (for i.v) and 9 samples in the p.o. leg at 15, 30 min, 1, 2, 4, 8, 24, 48 and 72 hrs.
The compounds of Examples A-2 and A-3 were both formulated in 10% DMSO/90% hydroxypropyl-beta-cyclodextrin (20% w/v in water) for i.v. and p.o. dosing. N =3 mice per time point.
Post dosing, terminal blood samples were taken from individual animals and delivered into labelled polypropylene tubes containing anticoagulant (EDTA). The samples were held on wet ice for a maximum of 30 min while sampling of all the animals in the cohort was completed. The blood samples were centrifuged for plasma (4° C., 21100 g for 5 min) and the resulting plasma transferred into corresponding labelled tubes. Terminal brains from each PO dosed animal were excised, rinsed with saline and placed into pre-weighed labelled polypropylene tubes and the samples re-weighed prior to storage.
Quantitative bioanalysis was carried out using liquid chromatography—mass spectroscopy was performed. The results are shown in Tables 14, 15 and 16 below and in FIGS. 12 to 15.

[11] = test system: U87MG tumours; assay: U87MG subcutaneous xenograft model; assay type: in vivo, Male athymic nude mice; settings: oral 100 mg/kg on days 1, 4 and 7; day 13
Protocol: Male athymic nude mice bearing U87MG tumours were given an oral dose of 100 mg/kg of atropisomer A-2 on days 1, 4 and 7 and the tumour volumes were measured over 20 days. Tumour volumes in a control group of tumour-bearing mice, who had received vehicle only at the same time points were also measured.

[12] = mouse, 2 mg/kg, 2 mq/Kq IV, male CD-1 mice, plasma
[13] = mouse, 10 mg/kg, 10 mq/Kq PO, male CD-1 mice, plasma

percent of control kinase binding to immobilized ligand at 3 µM [2]: 92% | percent of control kinase binding to immobilized ligand at 3 µM [3]: 100% | percent of control kinase binding to immobilized ligand at 3 µM [4]: 88% | percent of control kinase binding to immobilized ligand at 3 µM [5]: 77% | percent of control kinase binding to immobilized ligand at 3 µM [6]: 87% | percent of control kinase binding to immobilized ligand at 3 µM [7]: 100% | percent of control kinase binding to immobilized ligand at 3 µM [8]: 82% | remaining binding at 3 µM [9]: 100% | CI ([10]; 2 mq/Kq IV, male CD-1 mice, plasma): 20.5 mL/min/kg | F ([10]; 10 mq/Kq PO vs 2 mq/Kq IV, male CD-1 mice): 76% | AUC(0-inf) [10, 12]: 1620 ng·h/mL | Cmax [10, 12]: 278 ng/mL | half-life [10, 12]: 9 h | AUC(0-inf) [10, 13]: 6130 ng·h/mL | Cmax [10, 13]: 265 ng/mL | half-life [10, 13]: 10.7 h | AUC(0-t) ([10]; mouse, po, plasma, p.o. 10 mg/kg, male CD-1 mice, read-out: AUClast plasma): 6130 ng·h/mL | oral absorption / oral bioavailability (in words) ([10]; oral dosing in mice): highly absorbed
Structure (SMILES): CN(C)CCNC(=O)c1ccc(-c2ccc(-c3ccc(Cl)cc3)n2-c2ccccc2C(F)(F)F)cc1 (single isomer, unassigned) [Atropisomer A-2, 4-[5-(4-chlorophenyl)-1-[2-(trifluoromethyl)phenyl]pyrrol-2-yl]-N-[2-(dimethylamino)ethyl]benzamide]
tumour bioluminescent signal treated versus control [1]: decrease in tumour signal | tumour volume % T/C [11]: 3.85%
